Reference: article PMC10004634 (PLOS ONE, 2023)
Where two headings read alike, the source gives them in different places.

Legend:
Test in all cases: biochemical
Design in all cases: KINOMEscan scanMAX competition binding, DNA-tagged kinases, qPCR read-out, percent control at 300 nM
CAMKK2 = CAMKK2 (Homo sapiens, UniProt Q96RR4)
CTK = target: T1, CTK (Homo sapiens, UniProt P42679)
T1 construct: gene MATK

EGFR(E746-A750del) = EGFR(E746-A750del) (Homo sapiens, UniProt P00533, DEL746-750)
EPHA7 = EPHA7 (Homo sapiens, UniProt Q15375)
EPHB1 = EPHB1 (Homo sapiens, UniProt P54762)
EPHB4 = EPHB4 (Homo sapiens, UniProt P54760)
ERK8 = target: T2, ERK8 (Homo sapiens, UniProt Q8TD08)
T2 construct: gene MAPK15
T2 sequence (Q8TD08 whole entry): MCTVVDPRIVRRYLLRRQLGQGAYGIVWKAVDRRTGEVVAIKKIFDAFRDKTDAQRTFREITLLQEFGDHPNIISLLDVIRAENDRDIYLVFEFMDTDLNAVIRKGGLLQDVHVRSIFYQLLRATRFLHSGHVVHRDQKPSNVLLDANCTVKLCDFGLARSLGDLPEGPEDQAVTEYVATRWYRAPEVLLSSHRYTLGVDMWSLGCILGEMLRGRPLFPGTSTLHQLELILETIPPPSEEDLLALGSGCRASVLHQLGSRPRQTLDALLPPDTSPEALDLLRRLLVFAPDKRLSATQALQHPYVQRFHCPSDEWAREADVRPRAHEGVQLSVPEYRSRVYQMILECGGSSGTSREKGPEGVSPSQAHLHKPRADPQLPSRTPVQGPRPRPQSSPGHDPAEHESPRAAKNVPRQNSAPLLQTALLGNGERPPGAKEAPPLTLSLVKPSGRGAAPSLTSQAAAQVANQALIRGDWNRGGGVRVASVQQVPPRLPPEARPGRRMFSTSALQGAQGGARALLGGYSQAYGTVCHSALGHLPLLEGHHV

FES = FES (Homo sapiens, UniProt P07332)
FGFR3(G697C) = FGFR3(G697C) (Homo sapiens, UniProt P22607, G697C)
JNK2 = target: T3, JNK2 (Homo sapiens, UniProt P45984)
T3 construct: gene MAPK9

MAP3K4 = MAP3K4 (Homo sapiens, UniProt Q9Y6R4)
MAST1 = MAST1 (Homo sapiens, UniProt Q9Y2H9)
MYO3A = MYO3A (Homo sapiens, UniProt Q8NEV4)
Sequence of MYO3A (Q8NEV4 whole entry): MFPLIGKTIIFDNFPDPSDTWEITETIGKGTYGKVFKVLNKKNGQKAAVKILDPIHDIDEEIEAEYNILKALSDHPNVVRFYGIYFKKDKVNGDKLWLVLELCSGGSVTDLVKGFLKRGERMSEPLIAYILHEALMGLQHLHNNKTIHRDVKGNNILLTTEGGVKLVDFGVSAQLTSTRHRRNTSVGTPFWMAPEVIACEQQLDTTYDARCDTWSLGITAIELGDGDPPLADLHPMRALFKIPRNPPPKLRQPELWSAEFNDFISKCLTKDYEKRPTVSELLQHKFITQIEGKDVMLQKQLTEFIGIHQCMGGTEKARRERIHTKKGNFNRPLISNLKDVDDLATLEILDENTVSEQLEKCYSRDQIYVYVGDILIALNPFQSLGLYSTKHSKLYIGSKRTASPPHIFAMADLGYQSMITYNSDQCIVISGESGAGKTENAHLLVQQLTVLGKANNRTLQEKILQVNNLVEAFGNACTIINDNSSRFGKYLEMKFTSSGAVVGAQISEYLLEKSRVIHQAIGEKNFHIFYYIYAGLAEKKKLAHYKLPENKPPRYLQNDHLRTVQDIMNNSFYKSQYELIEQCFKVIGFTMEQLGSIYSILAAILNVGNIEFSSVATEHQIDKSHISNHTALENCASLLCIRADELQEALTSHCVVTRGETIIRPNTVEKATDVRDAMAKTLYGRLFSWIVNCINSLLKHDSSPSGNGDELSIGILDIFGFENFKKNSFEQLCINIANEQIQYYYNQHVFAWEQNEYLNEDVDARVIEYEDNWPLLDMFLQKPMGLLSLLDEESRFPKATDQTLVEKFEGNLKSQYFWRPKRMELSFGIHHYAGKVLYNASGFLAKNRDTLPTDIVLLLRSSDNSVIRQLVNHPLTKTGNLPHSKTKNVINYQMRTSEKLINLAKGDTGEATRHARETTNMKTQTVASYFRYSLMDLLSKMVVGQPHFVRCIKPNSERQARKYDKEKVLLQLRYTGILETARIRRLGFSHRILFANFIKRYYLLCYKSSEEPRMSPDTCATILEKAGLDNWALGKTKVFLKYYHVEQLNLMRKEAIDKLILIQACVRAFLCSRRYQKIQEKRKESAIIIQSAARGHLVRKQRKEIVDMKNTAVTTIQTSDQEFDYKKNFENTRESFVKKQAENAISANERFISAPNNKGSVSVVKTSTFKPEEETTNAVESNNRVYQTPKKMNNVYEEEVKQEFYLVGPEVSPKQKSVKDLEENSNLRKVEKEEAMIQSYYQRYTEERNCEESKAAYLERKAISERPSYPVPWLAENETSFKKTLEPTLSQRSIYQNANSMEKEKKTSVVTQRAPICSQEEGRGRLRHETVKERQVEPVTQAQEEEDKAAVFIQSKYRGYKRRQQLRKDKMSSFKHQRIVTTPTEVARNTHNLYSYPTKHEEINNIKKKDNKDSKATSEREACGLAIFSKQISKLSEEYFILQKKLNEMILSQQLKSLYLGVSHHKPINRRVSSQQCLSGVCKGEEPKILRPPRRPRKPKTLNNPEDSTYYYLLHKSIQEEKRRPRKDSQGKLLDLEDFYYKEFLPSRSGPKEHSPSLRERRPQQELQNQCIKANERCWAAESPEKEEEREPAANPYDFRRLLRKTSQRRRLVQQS

PAK3 = PAK3 (Homo sapiens, UniProt O75914)
PFTK1 = target: T4, PFTK1 (Homo sapiens, UniProt O94921)
T4 construct: gene CDK14
T4 sequence (O94921 whole entry): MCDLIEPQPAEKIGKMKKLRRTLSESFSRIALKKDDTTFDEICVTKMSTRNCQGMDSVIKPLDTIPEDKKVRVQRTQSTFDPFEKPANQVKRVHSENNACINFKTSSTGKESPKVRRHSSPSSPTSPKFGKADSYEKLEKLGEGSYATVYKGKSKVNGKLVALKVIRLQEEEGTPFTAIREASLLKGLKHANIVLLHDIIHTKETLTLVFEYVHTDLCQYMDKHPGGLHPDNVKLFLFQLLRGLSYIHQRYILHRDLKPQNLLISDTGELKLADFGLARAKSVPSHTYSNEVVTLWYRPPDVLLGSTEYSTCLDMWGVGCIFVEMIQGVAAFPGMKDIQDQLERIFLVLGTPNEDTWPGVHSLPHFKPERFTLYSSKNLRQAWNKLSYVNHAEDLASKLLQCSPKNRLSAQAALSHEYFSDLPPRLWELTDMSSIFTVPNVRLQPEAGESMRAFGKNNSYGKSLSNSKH

PIK3C2B = PIK3C2B (Homo sapiens, UniProt O00750)
PRKCI = PRKCI (Homo sapiens, UniProt P41743)
Sequence of PRKCI (P41743 whole entry): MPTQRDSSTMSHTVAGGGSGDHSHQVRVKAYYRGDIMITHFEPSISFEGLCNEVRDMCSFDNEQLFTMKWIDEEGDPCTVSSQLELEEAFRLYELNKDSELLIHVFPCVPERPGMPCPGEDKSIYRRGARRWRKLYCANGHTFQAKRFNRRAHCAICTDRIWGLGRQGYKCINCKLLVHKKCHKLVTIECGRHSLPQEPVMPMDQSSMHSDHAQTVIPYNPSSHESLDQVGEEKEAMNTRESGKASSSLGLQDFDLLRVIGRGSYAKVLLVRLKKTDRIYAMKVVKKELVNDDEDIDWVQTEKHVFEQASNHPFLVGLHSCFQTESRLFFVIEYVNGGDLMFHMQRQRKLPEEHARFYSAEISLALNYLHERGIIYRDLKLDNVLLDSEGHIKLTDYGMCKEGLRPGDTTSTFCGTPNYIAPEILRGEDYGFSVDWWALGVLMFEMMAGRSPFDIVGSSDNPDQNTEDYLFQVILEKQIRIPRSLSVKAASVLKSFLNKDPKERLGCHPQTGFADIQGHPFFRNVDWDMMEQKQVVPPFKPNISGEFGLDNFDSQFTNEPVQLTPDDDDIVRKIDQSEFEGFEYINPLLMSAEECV

TESK1 = TESK1 (Homo sapiens, UniProt Q15569)
ULK3 = ULK3 (Homo sapiens, UniProt Q6PHR2)
FGFR1 = FGFR1 (Homo sapiens, UniProt P11362)
CLK4 = CLK4 (Homo sapiens, UniProt Q9HAZ1)
DMPK = DMPK (Homo sapiens, UniProt Q09013)
DYRK2 = DYRK2 (Homo sapiens, UniProt Q92630)
[1] = read-out: Percent control / Acalabrutinib
[2] = read-out: Percent control / Ibrutinib
[3] = read-out: Percent control / Tirabrutinib
[4] = read-out: Percent control / Zanubrutinib

Sequence of EGFR(E746-A750del) (P00533 with tags, fused parts or gaps DEL746-750): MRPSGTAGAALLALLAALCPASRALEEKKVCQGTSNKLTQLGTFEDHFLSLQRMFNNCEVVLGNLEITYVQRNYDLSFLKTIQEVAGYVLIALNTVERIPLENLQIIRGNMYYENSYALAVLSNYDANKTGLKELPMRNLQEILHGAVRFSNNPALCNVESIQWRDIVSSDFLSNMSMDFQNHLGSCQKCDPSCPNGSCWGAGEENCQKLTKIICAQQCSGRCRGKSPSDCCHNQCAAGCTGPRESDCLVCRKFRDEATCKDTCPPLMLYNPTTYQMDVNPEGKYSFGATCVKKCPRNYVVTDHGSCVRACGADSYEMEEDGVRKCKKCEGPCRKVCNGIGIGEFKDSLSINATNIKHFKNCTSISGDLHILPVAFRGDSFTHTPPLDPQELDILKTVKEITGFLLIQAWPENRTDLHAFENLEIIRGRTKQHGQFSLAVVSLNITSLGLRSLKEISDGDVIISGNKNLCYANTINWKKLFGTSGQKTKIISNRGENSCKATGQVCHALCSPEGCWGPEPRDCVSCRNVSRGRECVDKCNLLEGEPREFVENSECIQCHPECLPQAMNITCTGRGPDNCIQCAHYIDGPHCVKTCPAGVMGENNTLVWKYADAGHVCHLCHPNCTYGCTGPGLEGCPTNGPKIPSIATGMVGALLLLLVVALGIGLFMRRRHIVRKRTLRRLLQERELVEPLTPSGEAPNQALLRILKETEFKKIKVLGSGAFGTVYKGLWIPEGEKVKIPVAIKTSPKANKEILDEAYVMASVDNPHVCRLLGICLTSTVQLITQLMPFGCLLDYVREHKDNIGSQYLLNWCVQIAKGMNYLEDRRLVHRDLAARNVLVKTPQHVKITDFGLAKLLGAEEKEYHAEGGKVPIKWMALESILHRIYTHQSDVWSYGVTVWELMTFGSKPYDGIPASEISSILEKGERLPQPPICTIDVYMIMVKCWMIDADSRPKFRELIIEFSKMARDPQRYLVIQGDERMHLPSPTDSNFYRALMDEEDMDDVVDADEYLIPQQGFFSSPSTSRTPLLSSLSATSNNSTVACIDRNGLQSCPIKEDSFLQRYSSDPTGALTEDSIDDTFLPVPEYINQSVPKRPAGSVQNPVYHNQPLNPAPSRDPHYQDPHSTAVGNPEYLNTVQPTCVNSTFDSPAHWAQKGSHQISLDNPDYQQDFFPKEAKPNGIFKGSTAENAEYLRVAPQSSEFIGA
T1 sequence (P42679 whole entry): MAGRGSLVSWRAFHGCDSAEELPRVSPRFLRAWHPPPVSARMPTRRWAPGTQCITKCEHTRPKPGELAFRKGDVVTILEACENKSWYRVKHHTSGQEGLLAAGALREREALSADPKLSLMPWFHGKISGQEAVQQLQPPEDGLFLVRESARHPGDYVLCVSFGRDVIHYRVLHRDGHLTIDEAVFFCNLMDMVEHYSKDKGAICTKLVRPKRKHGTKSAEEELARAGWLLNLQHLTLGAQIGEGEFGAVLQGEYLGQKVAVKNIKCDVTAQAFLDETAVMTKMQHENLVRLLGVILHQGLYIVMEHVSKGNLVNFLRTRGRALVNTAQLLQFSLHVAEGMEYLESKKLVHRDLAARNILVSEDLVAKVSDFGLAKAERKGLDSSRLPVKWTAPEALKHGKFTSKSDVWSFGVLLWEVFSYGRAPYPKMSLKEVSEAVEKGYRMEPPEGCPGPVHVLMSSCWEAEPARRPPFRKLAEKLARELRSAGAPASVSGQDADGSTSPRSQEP

**Q.** How did the remaining binding at 0.3 µM (CAMKK2; [1]) turn out when `CC#CC(=O)N1CCC[C@H]1c1nc(-c2ccc(C(=O)Nc3ccccn3)cc2)c2c(N)nccn12` [Acalabrutinib] was run?
**A.** The remaining binding at 0.3 µM was 97%.

**Q.** And the remaining binding at 0.3 µM (CTK; [1])?
**A.** The remaining binding at 0.3 µM was 97%.

**Q.** What about the remaining binding at 0.3 µM (EGFR(E746-A750del); [1]) of the same compound?
**A.** The remaining binding at 0.3 µM was 96%.

**Q.** What about the remaining binding at 0.3 µM (EPHA7; [1]) of the same compound?
**A.** The remaining binding at 0.3 µM was 99%.

**Q.** What about the remaining binding at 0.3 µM (EPHB1; [1]) of the same compound?
**A.** The remaining binding at 0.3 µM was 93%.

**Q.** And the remaining binding at 0.3 µM (EPHB4; [1])?
**A.** Its remaining binding at 0.3 µM is 93%.

**Q.** And the remaining binding at 0.3 µM (ERK8; [1])?
**A.** The remaining binding at 0.3 µM was 88%.

**Q.** And the remaining binding at 0.3 µM (FES; [1])?
**A.** Its remaining binding at 0.3 µM is 90%.

**Q.** And the remaining binding at 0.3 µM (FGFR3(G697C); [1])?
**A.** The remaining binding at 0.3 µM was 79%.

**Q.** And the remaining binding at 0.3 µM (JNK2; [1])?
**A.** The remaining binding at 0.3 µM was 95%.

**Q.** What about the remaining binding at 0.3 µM (MAP3K4; [1]) of the same compound?
**A.** Its remaining binding at 0.3 µM is 78%.

**Q.** What about the remaining binding at 0.3 µM (MAST1; [1]) of the same compound?
**A.** The remaining binding at 0.3 µM was 87%.

**Q.** What about the remaining binding at 0.3 µM (MYO3A; [1]) of the same compound?
**A.** Its remaining binding at 0.3 µM is 75%.

**Q.** What about the remaining binding at 0.3 µM (PAK3; [1]) of the same compound?
**A.** Its remaining binding at 0.3 µM is 77%.

**Q.** What about the remaining binding at 0.3 µM (PFTK1; [1]) of the same compound?
**A.** Its remaining binding at 0.3 µM is 89%.

**Q.** And the remaining binding at 0.3 µM (PIK3C2B; [1])?
**A.** The remaining binding at 0.3 µM was 93%.

**Q.** And the remaining binding at 0.3 µM (PRKCI; [1])?
**A.** The remaining binding at 0.3 µM was 87%.

**Q.** And the remaining binding at 0.3 µM (TESK1; [1])?
**A.** The remaining binding at 0.3 µM was 79%.

**Q.** What about the remaining binding at 0.3 µM (ULK3; [1]) of the same compound?
**A.** Its remaining binding at 0.3 µM is 91%.

**Q.** Which results are given for `C=CC(=O)N1CCC[C@@H](n2nc(-c3ccc(Oc4ccccc4)cc3)c3c(N)ncnc32)C1` [Ibrutinib]?
**A.** remaining binding at 0.3 µM (FGFR1; [2]): 66%; remaining binding at 0.3 µM (FGFR3(G697C); [2]): 77%; remaining binding at 0.3 µM (MYO3A; [2]): 96%

**Q.** What does the source list for `CC#CC(=O)N1CC[C@@H](n2c(=O)n(-c3ccc(Oc4ccccc4)cc3)c3c(N)ncnc32)C1` [Tirabrutinib]?
**A.** remaining binding at 0.3 µM (CLK4; [3]): 82%; remaining binding at 0.3 µM (DMPK; [3]): 93%; remaining binding at 0.3 µM (DYRK2; [3]): 99%; remaining binding at 0.3 µM (EGFR(E746-A750del); [3]): 100%

**Q.** Which results are given for `C=CC(=O)N1CCC([C@@H]2CCNc3c(C(N)=O)c(-c4ccc(Oc5ccccc5)cc4)nn32)CC1` [Zanubrutinib]?
**A.** remaining binding at 0.3 µM (CAMKK2; [4]): 87%; remaining binding at 0.3 µM (CLK4; [4]): 99%; remaining binding at 0.3 µM (CTK; [4]): 98%; remaining binding at 0.3 µM (DMPK; [4]): 90%; remaining binding at 0.3 µM (DYRK2; [4]): 81%; remaining binding at 0.3 µM (EPHA7; [4]): 97%; remaining binding at 0.3 µM (EPHB1; [4]): 96%; remaining binding at 0.3 µM (EPHB4; [4]): 87%; remaining binding at 0.3 µM (ERK8; [4]): 87%; remaining binding at 0.3 µM (FES; [4]): 100%; remaining binding at 0.3 µM (FGFR1; [4]): 68%; remaining binding at 0.3 µM (JNK2; [4]): 100%; remaining binding at 0.3 µM (MAP3K4; [4]): 75%; remaining binding at 0.3 µM (MAST1; [4]): 100%; remaining binding at 0.3 µM (PAK3; [4]): 83%; remaining binding at 0.3 µM (PFTK1; [4]): 92%; remaining binding at 0.3 µM (PIK3C2B; [4]): 62%; remaining binding at 0.3 µM (PRKCI; [4]): 68%; remaining binding at 0.3 µM (TESK1; [4]): 83%; remaining binding at 0.3 µM (ULK3; [4]): 82%
